The results in this text go back to patent publication US9382228B2 (priority 2013, dated 2016).

Experiment [1] concerns the target unphosphorylated PDGFRβ kinase (uPDGFRβ, Seq. ID No. 3) (Homo sapiens, UniProt P09619). The experiment can be described thus: biochemical. The conditions noted are these: uPDGFRb, enzymatic assay, ATP 500 μM.
Experimental: Unphosphorylated PDGFRβ (uPDGFRβ) Kinase (Seq. ID No. 3) Assay
In this assay, the oxidation of NADH (thus the decrease at A340 nm) was continuously monitored spectrophometrically. […] The inhibition reaction was started by mixing serial diluted test compound with the above reaction mixture. The absorption at 340 nm was monitored continuously for 4 h at 30° C. on a Polarstar Optima or Synergy 2 plate reader. The reaction rate was calculated using the 1.5 to 2.5 h time frame. Percent inhibition was obtained by comparison of reaction rate with that of a control (i.e. with no test compound). IC50 values were calculated from a series of percent inhibition values determined at a range of inhibitor concentrations using software routines as implemented in the GraphPad Prism software package.
For experiment [2], the system named is osteoclast precursors. As to the kind of experiment: cells. It is filed as cell-based. The conditions noted are these: read-out: Osteoclast assay.
Experiment [3] has as its target unphosphorylated c-KIT kinase (uKIT, Seq. ID no. 2) (Homo sapiens, UniProt P10721). As to the kind of experiment: biochemical. The conditions noted are these: uKIT, enzymatic assay, ATP 2000 μM.
Experimental: uKit kinase (Seq. ID No. 2) Assay
In this assay, the oxidation of NADH (thus the decrease at A340 nm) was continuously monitored spectrophometrically. […] The inhibition reaction was started by mixing serial diluted test compound with the above reaction mixture. The absorption at 340 nm was monitored continuously for 4 hours at 30° C. on Synergy 2 plate reader (BioTech).
Experiment [4] has as its target T1, unphosphorylated c-FMS kinase (uFMS, Seq. ID no. 1) (Homo sapiens, UniProt P07333).
T1 sequence (P07333 538-972): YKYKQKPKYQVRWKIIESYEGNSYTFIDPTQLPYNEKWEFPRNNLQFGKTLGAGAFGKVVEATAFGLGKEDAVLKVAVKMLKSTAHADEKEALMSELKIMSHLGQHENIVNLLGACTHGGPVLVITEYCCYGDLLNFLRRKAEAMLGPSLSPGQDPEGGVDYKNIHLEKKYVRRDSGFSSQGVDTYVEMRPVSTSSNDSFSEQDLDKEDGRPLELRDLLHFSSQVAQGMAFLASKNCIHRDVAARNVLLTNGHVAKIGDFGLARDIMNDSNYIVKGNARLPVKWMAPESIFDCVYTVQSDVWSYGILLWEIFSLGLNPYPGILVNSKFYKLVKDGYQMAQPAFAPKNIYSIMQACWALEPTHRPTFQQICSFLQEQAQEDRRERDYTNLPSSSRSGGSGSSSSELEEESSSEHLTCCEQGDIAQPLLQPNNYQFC
As to the kind of experiment: biochemical. The settings on record: uFMS, enzymatic assay, ATP 500 μM.

The test system of experiment [5] is M-NFS-60 cells. As to the kind of experiment: cells. The settings on record: 67 h, read-out: M-NFS-60 cell proliferation.
Experimental: M-NFS-6 Cell Proliferation Assay
A serial dilution of test compound was dispensed into a 384-well black clear bottom plate (Corning, Corning, N.Y.). Two thousand five hundred cells were added per well in 50 μL complete growth medium. […] IC50 values were calculated from a series of percent inhibition values determined at a range of inhibitor concentrations using software routines as implemented in the GraphPad Prism software package.
In experiment [6] the test system is phospho-FMS in THP-1 cells. The experiment can be described thus: cells. The settings on record: Homo sapiens, THP-1, read-out: pFMS inhibition in THP-1 cells.
Experimental: In a separate 96 well black clear bottom plate, one hundred and fifty thousand THP-1 cells were added per well in 100 μL in assay medium. Fifty microliters of diluted compound was then added to the cells. […] Lysates were prepared and used to perform the phospho-FMS ELISA as described by the manufacturer (catalog #DYC3268, R & D Systems, Minneapolis, Minn.). GraphPad Prism was used to calculate IC50 values obtained from data generated from the ELISA assay.

The structures appear in SMILES notation.

unphosphorylated PDGFRβ kinase (uPDGFRβ, Seq. ID No. 3), sequence (P09619 557-1106): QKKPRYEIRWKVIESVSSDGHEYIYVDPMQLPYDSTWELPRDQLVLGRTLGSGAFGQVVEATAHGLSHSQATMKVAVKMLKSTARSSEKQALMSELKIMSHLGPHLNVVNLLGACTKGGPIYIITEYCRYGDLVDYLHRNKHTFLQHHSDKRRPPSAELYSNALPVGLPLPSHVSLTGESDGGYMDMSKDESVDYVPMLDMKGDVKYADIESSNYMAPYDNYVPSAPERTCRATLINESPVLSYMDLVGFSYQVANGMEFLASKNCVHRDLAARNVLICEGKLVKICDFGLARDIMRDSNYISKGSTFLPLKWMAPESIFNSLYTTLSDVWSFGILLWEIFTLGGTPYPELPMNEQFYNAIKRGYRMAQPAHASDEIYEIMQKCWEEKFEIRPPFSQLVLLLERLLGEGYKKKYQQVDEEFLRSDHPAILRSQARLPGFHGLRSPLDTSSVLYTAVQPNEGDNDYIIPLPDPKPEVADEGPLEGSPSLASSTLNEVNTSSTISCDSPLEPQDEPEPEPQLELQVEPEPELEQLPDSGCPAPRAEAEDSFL
unphosphorylated c-KIT kinase (uKIT, Seq. ID no. 2), sequence (P10721 with tags, fused parts or gaps): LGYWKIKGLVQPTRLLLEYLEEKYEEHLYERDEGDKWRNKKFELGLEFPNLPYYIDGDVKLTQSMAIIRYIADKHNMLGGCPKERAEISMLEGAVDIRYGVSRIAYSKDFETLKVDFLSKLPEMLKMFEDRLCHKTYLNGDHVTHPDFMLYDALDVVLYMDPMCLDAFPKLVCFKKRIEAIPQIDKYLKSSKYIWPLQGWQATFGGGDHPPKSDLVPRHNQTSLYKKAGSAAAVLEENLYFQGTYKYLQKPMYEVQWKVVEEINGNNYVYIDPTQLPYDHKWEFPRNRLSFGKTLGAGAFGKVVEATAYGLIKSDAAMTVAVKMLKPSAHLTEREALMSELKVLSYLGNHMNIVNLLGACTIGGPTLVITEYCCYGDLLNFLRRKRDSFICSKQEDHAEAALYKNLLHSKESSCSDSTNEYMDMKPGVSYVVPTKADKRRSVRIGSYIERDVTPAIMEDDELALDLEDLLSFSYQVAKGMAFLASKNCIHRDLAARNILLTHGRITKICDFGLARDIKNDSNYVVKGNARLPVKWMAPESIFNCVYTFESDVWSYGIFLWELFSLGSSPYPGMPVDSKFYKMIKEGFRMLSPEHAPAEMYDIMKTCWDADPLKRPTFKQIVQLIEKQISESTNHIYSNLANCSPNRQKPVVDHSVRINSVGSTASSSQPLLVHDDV

Take `COC(C)(C)C(=O)NC(=O)Nc1ccc(Oc2ccnc(-c3ccc(C)nc3)c2)cn1` [Example 72, 2-methoxy-2-methyl-N-((5-((6′-methyl-[2,3′-bipyridin]-4-yl)oxy)pyridin-2-yl)carbamoyl)propanamide]: the IC50 was 0.1 to 1 µM in experiment [1]; below 0.01 µM in experiment [2]; above 1 µM in experiment [3]; below 0.01 µM in experiment [4]; 0.01 to 0.1 µM in experiment [5]; below 0.01 µM in experiment [6].

With `Cc1ccc(-c2cc(Oc3ccc(NC(=O)NC(=O)C(C)(C)C)nc3)ccn2)cn1` [Example 73, N-((5-((6′-methyl-[2,3′-bipyridin]-4-yl)oxy)pyridin-2-yl)carbamoyl)pivalamide], the IC50 in experiment [1] was 0.1 to 1 µM; in experiment [2], below 0.01 µM; in experiment [3], above 1 µM; in experiment [4] it was below 0.01 µM; in experiment [5] it was 0.01 to 0.1 µM; in experiment [6], below 0.01 µM.

As to `CC(C)C(=O)NC(=O)Nc1ccc(Oc2ccnc(-c3ccc(C4CCN(C)CC4)cc3)c2)cn1` [Example 75, N-((5-((2-(4-(1-methylpiperidin-4-yl)phenyl)pyridin-4-yl)oxy)pyridin-2-yl)carbamoyl)isobutyramide], the IC50 in experiment [1] was 0.1 to 1 µM; in experiment [2], below 0.01 µM; in experiment [3], 0.1 to 1 µM; in experiment [4], below 0.01 µM; in experiment [5] it was below 0.01 µM; in experiment [6], below 0.01 µM.

With `CCc1nc(NC(=O)NC(=O)C2CCOCC2)ccc1Oc1ccnc(-c2cnn(C)c2)c1` [Example 83, N-((6-ethyl-5-((2-(1-methyl-1H-pyrazol-4-yl)pyridin-4-yl)oxy)pyridin-2-yl)carbamoyl)tetrahydro-2H-pyran-4-carboxamide], the IC50 in experiment [1] was above 1 µM; in experiment [2], 0.01 to 0.1 µM; in experiment [3] it was above 1 µM; in experiment [4], below 0.01 µM; in experiment [5], 0.01 to 0.1 µM; in experiment [6] it was 0.1 to 1 µM.

In the case of `Cc1cc(NC(=O)NC(=O)C(C)(C)C)ncc1Oc1ccnc(-c2cnn(C)c2)c1` [Example 84, N-((4-methyl-5-((2-(1-methyl-1H-pyrazol-4-yl)pyridin-4-yl)oxy)pyridin-2-yl)carbamoyl)pivalamide], the IC50 in experiment [1] is 0.1 to 1 µM; in experiment [2], below 0.01 µM; in experiment [3], 0.1 to 1 µM; in experiment [4] it was below 0.01 µM; in experiment [5], below 0.01 µM; in experiment [6], below 0.01 µM.

`Cc1ncc(-c2cc(Oc3ccc(NC(=O)NC(=O)C(C)(C)C)nc3C)ccn2)s1` [Example 86, N-((6-methyl-5-((2-(2-methylthiazol-5-yl)pyridin-4-yl)oxy)pyridin-2-yl)carbamoyl)pivalamide]: the IC50 in experiment [1] is above 1 µM; in experiment [2], 0.01 to 0.1 µM; in experiment [3], above 1 µM; in experiment [4] it was below 0.01 µM; in experiment [5], below 0.01 µM; in experiment [6], below 0.01 µM.

Turning to `COC(C)(C)C(=O)NC(=O)Nc1cc(C)c(Oc2ccnc(-c3cnn(C)c3)c2)cn1` [Example 91, 2-methoxy-2-methyl-N-((4-methyl-5-((2-(1-methyl-1H-pyrazol-4-yl)pyridin-4-yl)oxy)pyridin-2-yl)carbamoyl)propanamide], the IC50 is 0.1 to 1 µM in experiment [1]; below 0.01 µM in experiment [2]; 0.01 to 0.1 µM in experiment [3]; below 0.01 µM in experiment [4]; below 0.01 µM in experiment [5]; below 0.01 µM in experiment [6].

On to `Cc1nc(NC(=O)NC(=O)C2(C)CCC2)ccc1Oc1ccnc(-c2cnn(C)c2)c1` [Example 92, 1-methyl-N-((6-methyl-5-((2-(1-methyl-1H-pyrazol-4-yl)pyridin-4-yl)oxy)pyridin-2-yl)carbamoyl)cyclobutanecarboxamide], for which the IC50 is 0.1 to 1 µM in experiment [1]; below 0.01 µM in experiment [2]; 0.1 to 1 µM in experiment [3]; below 0.01 µM in experiment [4]; below 0.01 µM in experiment [5]; below 0.01 µM in experiment [6].
